Earlier results on 1 substance are cited in patent US20110195928A1, “Administration of Copper to an Animal” (priority 2001, published 2011).

For the series the following is noted: general statement of the description.

Turning to copper edtate [edtates], the Solubility in water entry was “insoluble”.
